Reference: patent US9321764B2, “Dihydro-pyrrolopyridinone inhibitors” (AbbVie Inc., priority 2013, dated 2016)

Tests used:
BRD4 (BDII_E352-M457) = target: T1, BRD4 (BDII_E352-M457) (Homo sapiens, UniProt O60885); experiment: TR-FRET bromodomain binding assay, second bromodomain of BRD4; conditions: His-tagged BD2, 30 nM Alexa647 probe; TR-FRET protocol A-E given per row
T1 construct: proliferation; Protocol; made in house
Method in brief: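 His-tagged BRD4 BD2 ([…]) competed against an Alexa647-labelled BET-inhibitor probe in TR-FRET. Buffer was 20 mM sodium phosphate pH 6.0, 50 mM NaCl, 1 mM EDTA, 0.01% Triton X-100, 1 mM DTT, with method D DMSO series of 2.5 mM–800 nM (stock range). IC50 from 4-parameter fit, Ki from probe Kd and concentration.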

[1] = test system: breast cancer cell line MX-1; experiment: MX-1 cell line proliferation assay; type: cell-based; conditions: Homo sapiens, MX1, 72 h, MX-1 cells, 3-day proliferation assay, Cell Titer Glo; read-out: Cellular proliferation EC50
Experimental: The impact of compounds of the Examples on cancer cell proliferation was determined using the breast cancer cell line MX-1 (ATCC) in a 3-day proliferation assay and the data are reported in Table 1. MX-1 cells were maintained in RPMI 1640 medium (Sigma) supplemented with 10% FBS at 37° C. and an atmosphere of 5% CO2. For compound testing, MX-1 cells were plated in 96-well black bottom plates at a density of 5000 cells/well in 90 μL of culture media and incubated at 37° overnight to allow cell adhesion and spreading. Compound dilution series were prepared in DMSO via a 3-fold serial dilution from 3 mM to 0.1 μM. The DMSO dilution series were then diluted 1:100 in phosphate buffered saline, and 10 μL of the resulted solution were added to the appropriate wells of the MX-1 cell plate. The final compound concentrations in the wells were 3, 1, 0.3, 0.1, 0.03, 0.01, 0.003, 0.001, 0.0003 and 0.0001 μM.
Luminescence readings from the Cell Titer Glo assay were normalized to the DMSO treated cells and analyzed using the GraphPad Prism software with sigmoidal curve fitting to obtain EC50s. The minimum significant ratio (MSR) was determined to evaluate assay reproducibility (Eastwood et al., (2006) J Biomol Screen, 11: 253-261).

BRD4 (BDI_K57-E168) = target: T2, BRD4 (BDI_K57-E168) (Homo sapiens, UniProt O60885); experiment: TR-FRET bromodomain binding assay, first bromodomain of BRD4; conditions: His-tagged BD1, 100 nM Alexa647 probe; TR-FRET protocol A-E given per row
T2 construct: BD1: amino acids K57-E168; made in house
Method in brief: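 Ki values come from IC50s (4-parameter logistic) corrected for probe Kd and concentration, normalised to no-compound and 1 μM unlabelled probe controls. Probe displacement by TR-FRET used 8 nM BD1 (K57-E168), 100 nM Alexa647 probe, 1 nM Eu-anti-His, 20 mM phosphate pH 6.0, 2% DMSO, 1 h, room temperature.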

Ki (BRD4 (BDII_E352-M457)) [nM] | EC50 [1] [nM] | Ki (BRD4 (BDI_K57-E168)) [nM] | Compound
274 | 716 | 34 | Cn1cc(-c2cc(S(C)(=O)=O)ccc2O[C@H]2CC[C@@H](O)CC2)c2cc[nH]c(=O)c21 [Example 33, 3-{2-[(cis-4-hydroxycyclohexyl)oxy]-5-(methylsulfonyl)phenyl}-1-methyl-1,6-dihydro-7H-pyrrolo[2,3-c]pyridin-7-one]
29 | 95 | 1.6 | Cn1cc(-c2cc(S(C)(=O)=O)ccc2O[C@H]2CC[C@H](O)CC2)c2cc[nH]c(=O)c21 [Example 34, 3-{2-[(trans-4-hydroxycyclohexyl)oxy]-5-(methylsulfonyl)phenyl}-1-methyl-1,6-dihydro-7H-pyrrolo[2,3-c]pyridin-7-one]
406 | 403 | 63 | Cn1cc(-c2cc(S(C)(=O)=O)ccc2OCC2CCC(F)(F)CC2)c2cc[nH]c(=O)c21 [Example 41, 3-{2-[(4,4-difluorocyclohexyl)methoxy]-5-(methylsulfonyl)phenyl}-1-methyl-1,6-dihydro-7H-pyrrolo[2,3-c]pyridin-7-one]
79 | 221 | 13 | Cn1cc(-c2cc(S(C)(=O)=O)ccc2OCC2CC2(F)F)c2cc[nH]c(=O)c21 (stereo not drawn) [Example 42, 3-{2-[(2,2-difluorocyclopropyl)methoxy]-5-(methylsulfonyl)phenyl}-1-methyl-1,6-dihydro-7H-pyrrolo[2,3-c]pyridin-7-one]
89 | 136 | 14 | Cn1cc(-c2cc(S(C)(=O)=O)ccc2NCC2CC2)c2cc[nH]c(=O)c21 [Example 44, 3-{2-[(cyclopropylmethyl)amino]-5-(methylsulfonyl)phenyl}-1-methyl-1,6-dihydro-7H-pyrrolo[2,3-c]pyridin-7-one]
70 | 279 | 37 | CN(CC1CC1)c1ccc(S(C)(=O)=O)cc1-c1cn(C)c2c(=O)[nH]ccc12 [Example 45, 3-{2-[(cyclopropylmethyl)(methyl)amino]-5-(methylsulfonyl)phenyl}-1-methyl-1,6-dihydro-7H-pyrrolo[2,3-c]pyridin-7-one]
1090 | 479 | 205 | Cn1cc(-c2cc(S(C)(=O)=O)ccc2NCc2ccc(C#N)cc2)c2cc[nH]c(=O)c21 [Example 46, 4-({[2-(1-methyl-7-oxo-6,7-dihydro-1H-pyrrolo[2,3-c]pyridin-3-yl)-4-(methylsulfonyl)phenyl]amino}methyl)benzonitrile]
40 | 114 | 14 | CCS(=O)(=O)c1ccc(Oc2ccc(Cl)cc2)c(-c2cn(C)c3c(=O)[nH]ccc23)c1 [Example 48, 3-[2-(4-chlorophenoxy)-5-(ethylsulfonyl)phenyl]-1-methyl-1,6-dihydro-7H-pyrrolo[2,3-c]pyridin-7-one]
24 | 52 | 13 | CCS(=O)(=O)c1ccc(Oc2ccc(F)cc2F)c(-c2cn(C)c3c(=O)[nH]ccc23)c1 [Example 49, 3-[2-(2,4-difluorophenoxy)-5-(ethylsulfonyl)phenyl]-1-methyl-1,6-dihydro-7H-pyrrolo[2,3-c]pyridin-7-one]
62 | 201 | 47 | Cn1cc(-c2cc(S(N)(=O)=O)ccc2Oc2ccc(F)cc2F)c2cc[nH]c(=O)c21 [Example 51, 4-(2,4-difluorophenoxy)-3-(1-methyl-7-oxo-6,7-dihydro-1H-pyrrolo[2,3-c]pyridin-3-yl)benzenesulfonamide]
26 | 21 | 3.4 | CCS(=O)(=O)C(C)(C)c1ccc(Oc2ccc(F)cc2F)c(-c2cn(C)c3c(=O)[nH]ccc23)c1 [Example 54, 3-{2-(2,4-difluorophenoxy)-5-[2-(ethylsulfonyl)propan-2-yl]phenyl}-1-methyl-1,6-dihydro-7H-pyrrolo[2,3-c]pyridin-7-one]
9.9 | 29 | 4.2 | CCS(=O)(=O)C(C)c1ccc(Oc2ccc(F)cc2F)c(-c2cn(C)c3c(=O)[nH]ccc23)c1 (stereo not drawn) [Example 55, 3-{2-(2,4-difluorophenoxy)-5-[1-(ethylsulfonyl)ethyl]phenyl}-1-methyl-1,6-dihydro-7H-pyrrolo[2,3-c]pyridin-7-one]
88 | 57 | 72 | Cn1cc(-c2cc(CS(=O)(=O)c3ccccc3)ccc2Oc2ccc(F)cc2F)c2cc[nH]c(=O)c21 [Example 58, 3-{2-(2,4-difluorophenoxy)-5-[(phenylsulfonyl)methyl]phenyl}-1-methyl-1,6-dihydro-7H-pyrrolo[2,3-c]pyridin-7-one]
43 | 125 | 18 | Cn1cc(-c2cc(S(C)(=O)=O)ccc2Oc2ccc(F)cc2)c2cc[nH]c(=O)c21 [Example 61, 3-[2-(4-fluorophenoxy)-5-(methylsulfonyl)phenyl]-1-methyl-1,6-dihydro-7H-pyrrolo[2,3-c]pyridin-7-one]
66 | 187 | 74 | Cn1cc(-c2cc(S(C)(=O)=O)ccc2Oc2ccc3ccccc3c2)c2cc[nH]c(=O)c21 [Example 63, 1-methyl-3-[5-(methylsulfonyl)-2-(naphthalen-2-yloxy)phenyl]-1,6-dihydro-7H-pyrrolo[2,3-c]pyridin-7-one]
57 | 84 | 36 | Cn1cc(-c2cc(S(C)(=O)=O)ccc2OCC(F)(F)C(F)(F)F)c2cc[nH]c(=O)c21 [Example 64, 1-methyl-3-[5-(methylsulfonyl)-2-(2,2,3,3,3-pentafluoropropoxy)phenyl]-1,6-dihydro-7H-pyrrolo[2,3-c]pyridin-7-one]
1380 | > 3000 | 45 | CC(=O)N1CCC(Oc2ccc(S(C)(=O)=O)cc2-c2cn(C)c3c(=O)[nH]ccc23)CC1 [Example 67, 3-{2-[(1-acetylpiperidin-4-yl)oxy]-5-(methylsulfonyl)phenyl}-1-methyl-1,6-dihydro-7H-pyrrolo[2,3-c]pyridin-7-one]
124 | 38 | 103 | Cn1cc(-c2cc(S(C)(=O)=O)ccc2NCC2CCCC2)c2cc[nH]c(=O)c21 [Example 68, 3-{2-[(cyclopentylmethyl)amino]-5-(methylsulfonyl)phenyl}-1-methyl-1,6-dihydro-7H-pyrrolo[2,3-c]pyridin-7-one]
285 | 255 | 197 | Cn1cc(-c2cc(S(C)(=O)=O)ccc2NCC2C[C@@H]3CC[C@H]2C3)c2cc[nH]c(=O)c21 (stereo partly drawn) [Example 71, 3-[2-{[(1S,4R)-bicyclo[2.2.1]hept-2-ylmethyl]amino}-5-(methylsulfonyl)phenyl]-1-methyl-1,6-dihydro-7H-pyrrolo[2,3-c]pyridin-7-one]
21 | 194 | 43 | CCS(=O)(=O)c1ccc(Oc2ccc(C)cc2Cl)c(-c2cn(C)c3c(=O)[nH]ccc23)c1 [Example 73, 3-[2-(2-chloro-4-methylphenoxy)-5-(ethylsulfonyl)phenyl]-1-methyl-1,6-dihydro-7H-pyrrolo[2,3-c]pyridin-7-one]

Compound | Ki (BRD4 (BDII_E352-M457)) [nM] | EC50 [1] [nM] | Ki (BRD4 (BDI_K57-E168)) [nM]
Cn1cc(-c2cc(S(C)(=O)=O)ccc2OCCC(C)(C)C)c2cc[nH]c(=O)c21 [Example 40, 3-[2-(3,3-dimethylbutoxy)-5-(methylsulfonyl)phenyl]-1-methyl-1,6-dihydro-7H-pyrrolo[2,3-c]pyridin-7-one] | 64 | 87 | 23
